Measurements reported in ChEMBL document CHEMBL3046912, “Effectiveness of 1,3-dichloropropene as an alternative to methyl bromide in rotations of tomato (Solanum lycopersicum) and cucumber (Cucumis sativus) in China” (2012).

Key:
Format in all cases: functional
[1] = tested on: Digitaria sanguinalis; assay: Herbicidal activity against Digitaria sanguinalis (hairy crabgrass) in cucumber plants fields exposed to 120 L/ha compound fumigation treatment assessed as hand weeding time per plot relative to untreated control
[2] = tested on: Solanum lycopersicum; assay: Increase in crop yield in Cucumis sativus (cucumber) plants exposed to 120 L/ha compound fumigation treatment assessed as large fruit yield (reference value: 19.5 ton/ha)
[3] = tested on: Capsella bursa-pastoris; assay: Herbicidal activity against Capsella bursa-pastoris in tomato plants fields exposed to 90 L/ha compound fumigation treatment assessed as hand weeding time per plot relative to untreated control
[4] = tested on: Meloidogyne incognita; assay: Nematicidal activity against Meloidogyne incognita (root-knot nematode) in cucumber growing fields exposed to 180 L/ha compound fumigation treatment assessed as root galling index measured 20 days after compound treatment (reference value: 8.72 root galling index)
[5] = tested on: Digitaria sanguinalis; assay: Herbicidal activity against Digitaria sanguinalis (hairy crabgrass) in cucumber plants fields exposed to 180 L/ha compound fumigation treatment assessed as hand weeding time per plot (reference value: 258.3 hr/ha)
[6] = tested on: Solanum lycopersicum; assay: Increase in crop yield in Cucumis sativus (cucumber) plants exposed to 90 L/ha compound fumigation treatment assessed as medium fruit yield (reference value: 38.6 ton/ha)

## Cl/C=C/CCl [1,3-DICHLOROPROPENE]
[1]
  Activity: 45%
[2]
  Crop_yield: 27.9 tons/ha
[3]
  Activity: 45%
[4]
  Root_galling_index: 2.02
[5]
  Time: 62.3 hr/ha
[6]
  Crop_yield: 47.7 tons/ha
